Laboratory results published in patent US20120288712A1, “ESCITALOPRAM AND SOLID PHARMACEUTICAL COMPOSITION COMPRISING THE SAME” (ratiopharm GmbH, priority 2006, published 2012).
Counter-ions that a name gives are not always drawn.

Assay: Particle size distribution by laser diffraction (Sympatec Helos)
Format: physicochemical
Conditions: laser diffraction at 1 bar dispersive pressure
Description: As used herein, “particle size distribution” means the cumulative volume size distribution of equivalent spherical diameters as determined by laser diffraction at 1 bar dispersive pressure in a Sympatec Helos equipment. “Median particle size”, correspondingly, means the median of said particle size distribution. When the term “Escitalopram” is used it covers Escitalopram as well as a pharmaceutically acceptable salt and/or a pharmaceutically acceptable solvate thereof.

For `CN(C)CCC[C@@]1(c2ccc(F)cc2)OCc2cc(C#N)ccc21` [Escitalopram oxalate, (S)-1-[3-(dimethylamino)propyl]-1-(4-fluorophenyl)-1,3-dihydro-5-isobenzofurancarbonitrile], the median particle size was “about 6.65 μm” and the “ratio between the median particle size and the particle size at the 95% quantile” value was “about 0.61”.
